In ChEMBL document CHEMBL3286108, “Novel arylsulfonamide derivatives with 5-HT₆/5-HT₇ receptor antagonism targeting behavioral and psychological symptoms of dementia” (J Med Chem, 2014) one finds Ki and inhibition data, which are given here for 23 molecules.

A value given as a limit tells only on which side of the number the result lay.

Series [1] concerns the target 5-hydroxytryptamine receptor 7 (Homo sapiens, UniProt P34969). Kind of series: biochemical. The series is classed as cell-based, CHO-K1.
Series [2] addresses 5-hydroxytryptamine receptor 2A (Homo sapiens, UniProt P28223). Kind of series: biochemical. In kind it is cell-based, CHO-K1.
Series [3] has as its target T1, Muscarinic acetylcholine receptor M1 (Homo sapiens) (UniProt P11229).
T1 sequence (whole entry): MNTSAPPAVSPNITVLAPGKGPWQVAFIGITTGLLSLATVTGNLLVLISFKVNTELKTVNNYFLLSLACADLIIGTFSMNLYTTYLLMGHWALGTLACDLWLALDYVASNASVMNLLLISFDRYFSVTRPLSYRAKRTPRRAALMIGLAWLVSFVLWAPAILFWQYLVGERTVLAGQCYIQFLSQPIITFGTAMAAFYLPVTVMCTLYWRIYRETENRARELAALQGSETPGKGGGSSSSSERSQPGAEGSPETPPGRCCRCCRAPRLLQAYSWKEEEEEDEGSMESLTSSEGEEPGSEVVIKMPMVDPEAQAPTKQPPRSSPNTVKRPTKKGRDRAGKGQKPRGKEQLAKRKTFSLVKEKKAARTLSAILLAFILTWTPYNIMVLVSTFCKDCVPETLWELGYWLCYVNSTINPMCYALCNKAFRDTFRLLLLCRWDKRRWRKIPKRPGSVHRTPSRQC
Kind of series: Displacement of [3H]pirenzepine from human recombinant M1 receptor expressed in CHO cells at 1 uM. The series is classed as cell-based.

Series [4] addresses hERG (KCNH2) potassium channel (Homo sapiens, UniProt Q12809). Kind of series: in vitro. The conditions noted are these: CHO cells expressing human cloned ERG.
The target in series [5] is 5-hydroxytryptamine receptor 6 (Homo sapiens, UniProt P50406). Kind of series: biochemical.
Sequence of 5-hydroxytryptamine receptor 6 (P50406 whole entry): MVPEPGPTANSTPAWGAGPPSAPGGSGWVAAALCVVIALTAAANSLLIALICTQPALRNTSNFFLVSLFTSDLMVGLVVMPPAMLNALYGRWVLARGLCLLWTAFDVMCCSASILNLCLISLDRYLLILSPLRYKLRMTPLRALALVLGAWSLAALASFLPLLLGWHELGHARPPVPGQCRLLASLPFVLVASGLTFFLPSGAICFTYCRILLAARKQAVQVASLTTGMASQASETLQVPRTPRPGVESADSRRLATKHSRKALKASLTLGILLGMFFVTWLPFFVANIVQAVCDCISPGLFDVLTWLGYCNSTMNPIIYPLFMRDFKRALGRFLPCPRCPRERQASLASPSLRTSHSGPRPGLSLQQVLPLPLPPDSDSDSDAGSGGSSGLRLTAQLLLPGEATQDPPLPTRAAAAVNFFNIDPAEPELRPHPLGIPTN
A further series deals with D(2) dopamine receptor (Homo sapiens, UniProt P14416). Briefly: biochemical.
Sequence of D(2) dopamine receptor (P14416 whole entry): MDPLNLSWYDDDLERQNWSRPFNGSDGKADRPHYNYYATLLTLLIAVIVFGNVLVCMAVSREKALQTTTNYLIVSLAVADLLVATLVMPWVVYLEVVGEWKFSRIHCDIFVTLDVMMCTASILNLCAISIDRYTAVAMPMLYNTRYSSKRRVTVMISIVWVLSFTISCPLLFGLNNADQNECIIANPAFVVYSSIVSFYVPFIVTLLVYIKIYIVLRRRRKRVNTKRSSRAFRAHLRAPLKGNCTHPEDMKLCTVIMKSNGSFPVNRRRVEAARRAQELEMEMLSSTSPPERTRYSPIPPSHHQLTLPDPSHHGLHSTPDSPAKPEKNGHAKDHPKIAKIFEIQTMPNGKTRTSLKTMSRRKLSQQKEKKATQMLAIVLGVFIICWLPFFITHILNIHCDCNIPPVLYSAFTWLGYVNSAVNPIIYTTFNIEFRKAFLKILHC

Sequence of 5-hydroxytryptamine receptor 7 (P34969 whole entry): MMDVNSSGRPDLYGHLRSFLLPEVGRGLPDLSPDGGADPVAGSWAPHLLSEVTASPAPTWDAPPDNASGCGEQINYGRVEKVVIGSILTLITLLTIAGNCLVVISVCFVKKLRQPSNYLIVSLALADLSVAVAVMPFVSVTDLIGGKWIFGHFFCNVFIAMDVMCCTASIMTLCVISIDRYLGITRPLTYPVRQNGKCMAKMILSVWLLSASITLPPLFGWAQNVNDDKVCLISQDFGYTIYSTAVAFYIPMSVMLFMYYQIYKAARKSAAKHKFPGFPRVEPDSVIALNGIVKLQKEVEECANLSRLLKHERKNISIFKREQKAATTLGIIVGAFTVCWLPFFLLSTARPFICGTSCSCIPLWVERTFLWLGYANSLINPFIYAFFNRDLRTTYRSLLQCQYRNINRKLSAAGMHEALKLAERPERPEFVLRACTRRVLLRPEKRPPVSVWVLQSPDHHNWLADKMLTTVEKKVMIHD
Sequence of hERG (KCNH2) potassium channel (Q12809 whole entry): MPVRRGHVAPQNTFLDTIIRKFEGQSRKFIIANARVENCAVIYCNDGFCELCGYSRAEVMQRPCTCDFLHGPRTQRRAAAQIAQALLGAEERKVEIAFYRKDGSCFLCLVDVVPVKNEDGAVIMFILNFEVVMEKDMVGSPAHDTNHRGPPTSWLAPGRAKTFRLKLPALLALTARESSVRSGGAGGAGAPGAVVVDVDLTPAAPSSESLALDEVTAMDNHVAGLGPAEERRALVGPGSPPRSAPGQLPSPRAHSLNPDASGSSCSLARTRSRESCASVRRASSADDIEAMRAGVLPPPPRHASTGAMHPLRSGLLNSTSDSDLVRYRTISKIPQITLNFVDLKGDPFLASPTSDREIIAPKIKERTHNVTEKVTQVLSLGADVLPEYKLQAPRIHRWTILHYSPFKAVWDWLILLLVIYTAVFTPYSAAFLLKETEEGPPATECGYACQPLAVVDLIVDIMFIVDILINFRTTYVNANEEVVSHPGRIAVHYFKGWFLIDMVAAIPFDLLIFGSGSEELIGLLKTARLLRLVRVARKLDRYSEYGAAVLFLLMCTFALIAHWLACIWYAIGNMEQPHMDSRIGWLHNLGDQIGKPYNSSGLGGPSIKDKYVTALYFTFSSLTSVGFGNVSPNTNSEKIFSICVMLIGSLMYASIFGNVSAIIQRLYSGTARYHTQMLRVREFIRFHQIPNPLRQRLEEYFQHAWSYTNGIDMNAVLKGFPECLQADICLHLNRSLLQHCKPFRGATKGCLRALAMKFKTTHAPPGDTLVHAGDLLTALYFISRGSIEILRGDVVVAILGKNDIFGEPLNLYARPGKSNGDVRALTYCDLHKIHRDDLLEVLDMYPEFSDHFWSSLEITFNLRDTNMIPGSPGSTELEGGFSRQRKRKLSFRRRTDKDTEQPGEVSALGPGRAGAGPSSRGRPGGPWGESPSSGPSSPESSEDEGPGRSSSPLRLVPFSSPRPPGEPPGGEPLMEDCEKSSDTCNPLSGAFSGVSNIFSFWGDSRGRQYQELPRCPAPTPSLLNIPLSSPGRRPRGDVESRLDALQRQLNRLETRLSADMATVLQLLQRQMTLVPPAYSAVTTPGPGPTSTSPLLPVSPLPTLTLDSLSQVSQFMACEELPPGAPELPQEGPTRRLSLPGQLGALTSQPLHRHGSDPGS
Sequence of 5-hydroxytryptamine receptor 2A (P28223 whole entry): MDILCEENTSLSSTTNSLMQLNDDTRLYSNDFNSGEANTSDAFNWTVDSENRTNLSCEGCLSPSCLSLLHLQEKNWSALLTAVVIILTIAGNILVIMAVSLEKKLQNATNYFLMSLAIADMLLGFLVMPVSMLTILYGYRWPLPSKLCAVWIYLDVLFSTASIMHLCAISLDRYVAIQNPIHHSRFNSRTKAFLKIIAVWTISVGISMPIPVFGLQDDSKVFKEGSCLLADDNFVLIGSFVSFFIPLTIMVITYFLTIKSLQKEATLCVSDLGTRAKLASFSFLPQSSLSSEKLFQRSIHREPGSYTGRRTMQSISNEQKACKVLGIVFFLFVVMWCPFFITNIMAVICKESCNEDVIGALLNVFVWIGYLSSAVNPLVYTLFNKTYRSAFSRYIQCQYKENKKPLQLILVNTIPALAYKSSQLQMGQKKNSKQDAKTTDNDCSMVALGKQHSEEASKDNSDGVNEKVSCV

As for `O=S(=O)(NCCCCN1CCC(c2noc3cc(F)ccc23)CC1)c1ccc(Cl)c(Cl)c1`, the inhibitory constant (Ki) in series [1] turned out to be 5.1 nM; in series [2] it was 4.9 nM; in series [5] it was 26 nM; at D(2) dopamine receptor it was 15 nM. In addition, the inhibition in series [3] was 27%. For the same molecule, in series [4], the inhibition at 1 µM amounted to 82%.
For `O=S(=O)(NCCCN1CCN(c2nsc3ccccc23)CC1)c1ccc2cc(Cl)ccc2c1`, the Ki turned out to be 38 nM in series [1], 13 nM in series [2], 100 nM in series [5] and 6 nM at D(2) dopamine receptor. In addition, the inhibition in series [3] was -7%. Also, in series [4], the inhibition at 1 µM turned out to be 7%.
In the case of `O=S(=O)(NCCCCN1CCC(c2noc3cc(F)ccc23)CC1)c1ccc(OC(F)(F)F)cc1`, the Ki came to 15 nM in series [1], 3.6 nM in series [2], 23 nM in series [5] and 64 nM on D(2) dopamine receptor. Further, the inhibition in series [3] was -6%. For the same molecule, the inhibition at 1 µM in series [4] was determined as 73%.
Turning to `O=S(=O)(NCCN1CCC(c2noc3cc(F)ccc23)CC1)c1ccc2ccccc2c1`, the Ki in series [1] amounted to 0.4 nM; in series [2] it was 1.8 nM; in series [5], 133 nM; at D(2) dopamine receptor it was 5.2 nM. In series [3], the inhibition was -2%. In addition, in series [4], the inhibition at 1 µM is 21%.
With `O=S(=O)(NCCCN1CCN(c2nsc3ccccc23)CC1)c1cccc2scnc12`, the inhibition constant (Ki) in series [1] was found to be 2 nM; in series [2] it was 8.4 nM; in series [5], 27 nM; on D(2) dopamine receptor, 27 nM. Moreover, the inhibition in series [3] came out at 0%. Further, the inhibition at 1 µM in series [4] is 16%.
For the molecule `O=S(=O)(NCCCCN1CCN(c2nsc3ccccc23)CC1)c1cc2ccc(Cl)cc2s1`, the inhibition constant (Ki) in series [1] was 9 nM; in series [2], 6.5 nM; in series [5], 45 nM; at D(2) dopamine receptor, 45 nM. Further, the inhibition in series [3] was 2%. The inhibition at 1 µM in series [4] worked out at 5%.
As to `O=S(=O)(NCCCN1CCC(c2noc3cc(F)ccc23)CC1)c1ccc2cc(Cl)ccc2c1`, the Ki turned out to be 18 nM in series [1], 3.1 nM in series [2], 26 nM in series [5] and 23 nM on D(2) dopamine receptor. In addition, in series [3], the inhibition was -7%. Also, the inhibition at 1 µM in series [4] came out at 28%.
For `O=S(=O)(NCCN1CCC(c2noc3cc(F)ccc23)CC1)c1cccc2ccccc12`, the Ki turned out to be 1.3 nM in series [1], 0.7 nM in series [2], 250 nM in series [5] and 9.1 nM on D(2) dopamine receptor. Also, the inhibition in series [3] was -8%. In addition, in series [4], the inhibition at 1 µM stood at 0%.
On to `O=S(=O)(NCCCN1CCC(c2noc3cc(F)ccc23)CC1)c1cc2ccc(Cl)cc2s1`, for which the Ki in series [1] is 34 nM; in series [2], 2.6 nM; in series [5], 44 nM; at D(2) dopamine receptor it was 27 nM. Further, in series [3], the inhibition was -8%. The inhibition at 1 µM in series [4] was determined as 20%.
In the case of `O=S(=O)(NCCCN1CCC(c2noc3cc(F)ccc23)CC1)c1cccc2scnc12`, the Ki is 1.3 nM in series [1], 9.1 nM in series [2], 23 nM in series [5] and over 1000 nM at D(2) dopamine receptor. Moreover, the inhibition in series [3] turned out to be 1%. Further, the inhibition at 1 µM in series [4] was 51%.
Turning to `O=S(=O)(NCCCN1CCC(c2noc3cc(F)ccc23)CC1)c1cnc2ccccn12`, the inhibition constant Ki in series [1] turned out to be 3.2 nM; in series [2] it was 6.5 nM; in series [5] it was 100 nM; on D(2) dopamine receptor, 15 nM. For the same molecule, the inhibition in series [3] is -4%. Besides, the inhibition at 1 µM in series [4] is 28%.
Regarding `O=S(=O)(NCCCCN1CCN(c2nsc3ccccc23)CC1)c1cccc2scnc12`, the Ki in series [1] came to 3.4 nM; in series [2] it was 7.5 nM; in series [5], 120 nM; on D(2) dopamine receptor it was 16 nM. The inhibition in series [3] was 0%. In series [4], the inhibition at 1 µM was 34%.
`O=S(=O)(NCCCN1CCN(c2nsc3ccccc23)CC1)c1cnc2ccccn12`: the Ki in series [1] was determined as 6.3 nM; in series [2], 12 nM; in series [5], 84 nM; on D(2) dopamine receptor, 26 nM. Also, the inhibition in series [3] turned out to be 2%. Also, the inhibition at 1 µM in series [4] is 6%.
Turning to `O=S(=O)(NCCCCN1CCN(c2noc3ccccc23)CC1)c1cnc2ccccn12`, the inhibition constant (Ki) was determined as 5.9 nM in series [1], 13 nM in series [2], 95 nM in series [5] and 100 nM at D(2) dopamine receptor. Further, in series [3], the inhibition is 0%. For the same molecule, in series [4], the inhibition at 1 µM is 13%.
Turning to `Cc1cccc(S(=O)(=O)NCCCCN2CCC(c3noc4cc(F)ccc34)CC2)c1`, the Ki in series [1] came out at 1.5 nM; in series [2] it was 2.1 nM; in series [5] it was 140 nM; at D(2) dopamine receptor it was 17 nM. Also, in series [3], the inhibition was determined as 11%. Moreover, the inhibition at 1 µM in series [4] was 57%.
`O=S(=O)(NCCCN1CCN(c2noc3ccccc23)CC1)c1cccc2scnc12`: the Ki was 41 nM in series [1], 3300 nM in series [2], over 10000 nM in series [5] and over 10000 nM on D(2) dopamine receptor. In addition, the inhibition in series [3] was -2%. The inhibition at 1 µM in series [4] is 17%.
As for `O=S(=O)(NCCCN1CCN(c2noc3ccccc23)CC1)c1cc2ccc(Cl)cc2s1`, the Ki in series [1] was determined as 900 nM; in series [2] it was 63 nM; in series [5], 560 nM; on D(2) dopamine receptor it was 30 nM. Besides, the inhibition in series [3] is 6%. For the same molecule, the inhibition at 1 µM in series [4] came to 7%.
As to `O=S(=O)(NCCCN1CCC(c2noc3cc(F)ccc23)CC1)c1cccc2ccccc12`, the Ki in series [1] came out at 0.5 nM; in series [2], 1.7 nM; in series [5] it was 83 nM; at D(2) dopamine receptor, 4 nM. Further, the inhibition in series [3] was -9%. In series [4], the inhibition at 1 µM is 27%.
`Cc1cccc(S(=O)(=O)NCCN2CCC(c3noc4cc(F)ccc34)CC2)c1`: the Ki in series [1] was found to be 1.1 nM; in series [2], 3.5 nM; in series [5], 210 nM; at D(2) dopamine receptor, 20 nM. Moreover, in series [3], the inhibition was found to be 0%. Also, the inhibition at 1 µM in series [4] came to 42%.
In the case of `O=S(=O)(NCCCCN1CCC(c2noc3cc(F)ccc23)CC1)c1cnc2ccccn12`, the Ki was 14 nM in series [1], 9.5 nM in series [2], 100 nM in series [5] and over 1000 nM at D(2) dopamine receptor. The inhibition in series [3] was determined as 37%. Moreover, in series [4], the inhibition at 1 µM worked out at 47%.
Regarding `O=S(=O)(NCCCCN1CCN(c2noc3ccccc23)CC1)c1ccc(F)c(Cl)c1`, the Ki in series [1] came to 0.1 nM; in series [2], 17 nM; in series [5], 27 nM; at D(2) dopamine receptor, 77 nM. The inhibition in series [3] worked out at 6%. Besides, the inhibition at 1 µM in series [4] was determined as 45%.
In the case of `O=S(=O)(NCCCN1CCN(c2noc3ccccc23)CC1)c1ccc(F)c(Cl)c1`, the inhibitory constant (Ki) in series [1] is 9.9 nM; in series [2], 98 nM; in series [5] it was 330 nM; at D(2) dopamine receptor, over 10000 nM. Besides, in series [3], the inhibition came to 2%. Also, the inhibition at 1 µM in series [4] worked out at 33%.
Turning to `O=S(=O)(NCCCN1CCN(c2noc3ccccc23)CC1)c1ccc2ccccc2c1`, the inhibitory constant (Ki) in series [1] was determined as 120 nM; in series [2], 110 nM; in series [5], 1600 nM; on D(2) dopamine receptor, 7200 nM. Also, the inhibition in series [3] was -5%. For the same molecule, the inhibition at 1 µM in series [4] was 29%.
